Reference: patent US20240239752A1, “BICYCLIC HETEROAROMATIC INHIBITORS OF KLK5” (BioCryst Pharmaceuticals, Inc., priority 2021, published 2024)

Biological target: T1, recombinant human KLK5 (Homo sapiens, UniProt Q9Y337)
T1 construct: purchased Novoprotein or R&D Systems C415 or 1108-SE
T1 sequence (Q9Y337 23-293): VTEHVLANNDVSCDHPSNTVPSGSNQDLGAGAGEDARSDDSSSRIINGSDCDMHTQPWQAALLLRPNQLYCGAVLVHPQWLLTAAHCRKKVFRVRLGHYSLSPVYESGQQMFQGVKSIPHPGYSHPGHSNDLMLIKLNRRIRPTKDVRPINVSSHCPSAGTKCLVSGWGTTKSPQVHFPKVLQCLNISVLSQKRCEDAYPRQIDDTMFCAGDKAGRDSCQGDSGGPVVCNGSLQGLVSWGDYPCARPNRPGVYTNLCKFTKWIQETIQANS
Assay: Kallikrein (KLK) 5 enzymatic assay (Boc-VPR-AMC fluorogenic substrate)
Format: biochemical
Conditions: recombinant human KLK5 0.1 μg/well, Boc-VPR-AMC 100 μM, pH 7.5, room temperature, 1% DMSO; tested a minimum of three times
Outline: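 Fluorogenic rate assay at pH 7.5 (0.1 M NaH2PO4, 1% DMSO, room temperature), run at least three times per compound. Compound was premixed with 0.1 μg/well recombinant human KLK5 before adding 100 μM Boc-VPR-AMC; AMC release was read at ex 380/em 460 nm, and IC50 derived from inhibition of rate vs DMSO control.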

| IC50 [nM] | Compound |
| --- | --- |
| > 10000 | Cn1c(=O)n(Cc2ccccc2CC(=O)O)c2cc(-c3ccc4ccnc(N)c4c3)ccc21 [Compound 217e, 2-(2-((6-(1-aminoisoquinolin-7-yl)-3-methyl-2-oxo-2,3-dihydro-1H-benzo[d]imidazol-1-yl)methyl)phenyl)acetic acid] |
| < 1000 | CC[C@H](C)n1nc(COc2ccccc2CC(=O)O)c2cc(-c3cccc4c(N)nccc34)ccc21 [Compound 193b, (S)-2-(2-((5-(1-aminoisoquinolin-5-yl)-1-(sec-butyl)-1H-indazol-3-yl)methoxy)phenyl)acetic acid] |
| > 10000 | COc1cc(C(=N)N)cc(-c2ccc3c(c2)c(COc2ccccc2CC(=O)O)nn3C(C)C)c1 [Compound 82e, 2-(2-((5-(3-carbamimidoyl-5-methoxyphenyl)-1-isopropyl-1H-indazol-3-yl)methoxy)phenyl)acetic acid] |
| < 1000 | CC(C)Cn1nc(COc2ccccc2CC(=O)O)c2cc(-c3cccc4c(N)nccc34)ccc21 [Compound 189b, 2-(2-((5-(1-aminoisoquinolin-5-yl)-1-isobutyl-1H-indazol-3-yl)methoxy)phenyl)acetic acid] |
| > 10000 | CC(C)n1nc(COc2ccccc2CC(=O)O)c2cc(-c3ccc(C(=N)N)cc3)ccc21 [Compound 2g, 2-(2-((5-(4-carbamimidoylphenyl)-1-isopropyl-1H-indazol-3-yl)methoxy)phenyl)acetic acid] |
| < 1000 | N=C(N)c1cccc(-c2cc(OCc3nccs3)c3occ(COc4ccccc4CC(=O)O)c3c2)c1 [Compound 228f, 2-(2-((5-(3-carbamimidoylphenyl)-7-(thiazol-2-ylmethoxy)benzofuran-3-yl)methoxy)phenyl)acetic acid] |
| > 10000 | Cc1ccc(CC(=O)O)c(OCc2c3cc(-c4ccc5ccnc(N)c5c4)ccc3nn2C2CCC2)c1 [Compound 17e, 2-(2-((5-(1-aminoisoquinolin-7-yl)-2-cyclobutyl-2H-indazol-3-yl)methoxy)-4-methylphenyl)acetic acid] |
| < 1000 | COc1c(-c2ccc3c(c2)c(COc2ccccc2CC(=O)O)nn3C2CCCC2)ccnc1CN [Compound 327d, 2-(2-((5-(2-(aminomethyl)-3-methoxypyridin-4-yl)-1-cyclopentyl-1H-indazol-3-yl)methoxy)phenyl)acetic acid] |
| < 1000 | N=C(N)c1cccc(-c2ccc3c(c2)c(COc2ccccc2CC(=O)O)nn3C2CCCCC2)c1 [Compound 226b, 2-(2-((5-(3-carbamimidoylphenyl)-1-cyclohexyl-1H-indazol-3-yl)methoxy)phenyl)acetic acid] |
| < 1000 | CC(C)CCN1CCC(n2nc(COc3ccccc3CC(=O)O)c3cc(-c4ccc5ccnc(N)c5c4)ccc32)C1 (stereo not drawn) [Compound 309c, 2-(2-((5-(1-aminoisoquinolin-7-yl)-1-(1-isopentylpyrrolidin-3-yl)-1H-indazol-3-yl)methoxy)phenyl)acetic acid] |
| 1000 to 10000 | Nc1nccc2c(-c3ccc4nn(C5CCCCC5)c(COc5ccccc5CC(=O)O)c4c3)cccc12 [Compound 14f, 2-(2-((5-(1-aminoisoquinolin-5-yl)-2-cyclohexyl-2H-indazol-3-yl)methoxy)phenyl)acetic acid] |
| < 1000 | Nc1nccc2ccc(-c3ccc4c(c3)c(COc3ccccc3CC(=O)O)nn4C3CCC(F)(F)C3)cc12 (stereo not drawn) [Compound 266b, 2-(2-((5-(1-aminoisoquinolin-7-yl)-1-(3,3-difluorocyclopentyl)-1H-indazol-3-yl)methoxy)phenyl)acetic acid] |
| < 1000 | CC(C)CCN1CCC(n2nc3ccc(-c4cccc5c(N)nccc45)cc3c2COc2ccccc2CC(=O)O)CC1 [Compound 132b, 2-(2-((5-(1-aminoisoquinolin-5-yl)-2-(1-isopentylpiperidin-4-yl)-2H-indazol-3-yl)methoxy)phenyl)acetic acid] |
| < 1000 | Nc1nccc2c(-c3ccc4c(c3)c(COc3ccccc3CC(=O)O)nn4CC3CCOC3)cccc12 (stereo not drawn) [Compound 88h, 2-(2-((5-(1-aminoisoquinolin-5-yl)-1-((tetrahydrofuran-3-yl)methyl)-1H-indazol-3-yl)methoxy)phenyl)acetic acid] |
| < 1000 | Nc1nccc2ccc(-c3ccc4c(c3)c(COc3ccccc3CC(=O)O)nn4[C@@H]3CCOC3)cc12 [Compound 246b, (R)-2-(2-((5-(1-aminoisoquinolin-7-yl)-1-(tetrahydrofuran-3-yl)-1H-indazol-3-yl)methoxy)phenyl)acetic acid] |
| < 1000 | CCOC(=O)N1CC[C@H](n2nc(COc3cccc(C)c3CC(=O)O)c3cc(-c4cccc5c(N)nccc45)ccc32)C1 [Compound 344b, (S)-2-(2-((5-(1-aminoisoquinolin-5-yl)-1-(1-(ethoxycarbonyl)pyrrolidin-3-yl)-1H-indazol-3-yl)methoxy)-6-methylphenyl)acetic acid] |
| > 10000 | CC(C)n1nc(COc2ccccc2CC(=O)O)c2cc(-c3ccc4cccc(N)c4c3)ccc21 [Compound 70c, 2-(2-((5-(8-aminonaphthalen-2-yl)-1-isopropyl-1H-indazol-3-yl)methoxy)phenyl)acetic acid] |
| < 1000 | CCS(=O)(=O)N1CC(n2nc3ccc(-c4cccc5c(N)nccc45)cc3c2COc2ccccc2CC(=O)O)C1 [Compound 130c, 2-(2-((5-(1-aminoisoquinolin-5-yl)-2-(1-(ethylsulfonyl)azetidin-3-yl)-2H-indazol-3-yl)methoxy)phenyl)acetic acid] |
| < 1000 | Nc1nccc2ccc(-c3ccc4c(c3)c(COc3ccccc3CC(=O)O)nn4C3CCN(CCO)C3)cc12 (stereo not drawn) [Compound 299b, 2-(2-((5-(1-aminoisoquinolin-7-yl)-1-(1-(2-hydroxyethyl)pyrrolidin-3-yl)-1H-indazol-3-yl)methoxy)phenyl)acetic acid] |
| < 1000 | CCC(CC)n1nc(COc2ccccc2CC(=O)O)c2cc(-c3ccc4ccnc(N)c4c3)ccc21 [Compound 110e, 2-(2-((5-(1-aminoisoquinolin-7-yl)-1-(pentan-3-yl)-1H-indazol-3-yl)methoxy)phenyl)acetic acid] |
| < 1000 | CC(C)CCN1CC(n2nc3ccc(-c4cccc5c(N)nccc45)cc3c2COc2ccccc2CC(=O)O)C1 [Compound 121c, 2-(2-((5-(1-aminoisoquinolin-5-yl)-2-(1-isopentylazetidin-3-yl)-2H-indazol-3-yl)methoxy)phenyl)acetic acid] |

| Compound | IC50 [nM] |
| --- | --- |
| CC(C)(C)OC(=O)N1CC(Cn2nc(COc3ccccc3CC(=O)O)c3cc(-c4ccc5ccnc(N)c5c4)ccc32)C1 [Compound 194g, 2-(2-((5-(1-aminoisoquinolin-7-yl)-1-((1-(tert-butoxycarbonyl)azetidin-3-yl)methyl)-1H-indazol-3-yl)methoxy)phenyl)acetic acid] | < 1000 |
| CC(C)(C)OC(=O)N1CCC2(CC1)C[C@H](Oc1ccccc1CC(=O)O)c1cc(-c3ccc4ccnc(N)c4c3)ccc12 [Compound 393b, (S)-2-(2-((5-(1-aminoisoquinolin-7-yl)-1′-(tert-butoxycarbonyl)-2,3-dihydrospiro[indene-1,4′-piperidin]-3-yl)oxy)phenyl)acetic acid] | < 1000 |
| CCN1CCC2(CC1)C[C@@H](Oc1ccccc1CC(=O)O)c1cc(-c3ccc4ccnc(N)c4c3)ccc12 [Compound 436b, (R)-2-(2-((5-(1-aminoisoquinolin-7-yl)-1′-ethyl-2,3-dihydrospiro[indene-1,4′-piperidin]-3-yl)oxy)phenyl)acetic acid] | < 1000 |
